According to article PMC9500407, “Quantifying the transport of biologics across intestinal barrier models in real-time by fluorescent imaging” (Frontiers in Bioengineering and Biotechnology, 2022):

Key:
[1] = tested on: Caco-2:HT29-MTX E12 coculture tubules; assay: Live cell imaging of cellular uptake and intracellular localization in coculture tubules; format: cell-based, human
Protocol: Spinning disc (SD) confocal microscopy was performed on a Nikon Ti2 inverted microscope equipped with a Yokogawa CSU-W1 module and a Photometrics Prime 95B sCMOS camera was used for all experiments (excl. Image-based TAT transport). The set-up includes four excitation lasers 405/488/561/638 nm with 442/42, 520/28 BrightLine HC filters and 600/50 ET, 700/75 ET bandpass filters. For this work, a set of CFI Plan Apochromat Lambda objectives were used: ×4/0.2, 20x/0.75, 60x/1.4 and 100x/1.45. For image-based transport experiments, epi-fluorescence microscopy was performed using a Nikon Eclipse Ti2 microscope equipped with an LED source (CoolLED), a dual-band filter cube (AHF, Excitation 455–489 nm, 557–588 nm; Emission 506–542 nm, 605–660 nm) and a Photometrics Evolve 512 electron-multiplying charge-coupled device camera was used (10x N.A. 0.30).
Here, the cells were counterstained with Hoechst (H1399, Thermo Fischer, 10 μg ml^−1) and incubated for 1 h at 37°C, 5% CO2, washed with PBS and images were acquired using SD confocal microscopy with 488 nm laser and 520/28 BrightLine HC filters for detecting FITC-labelled TAT and the 405 nm laser and 442/42 BrightLine HC filter for acquiring Hoechst. […] The transport of TAT was tracked over 2 h, acquiring time lapse images every 30 s using epi-fluorescence microscopy (see Imaging modalities). […]

[2] = tested on: Caco-2:HT29-MTX E12 coculture tubules; assay: Barrier integrity monitored by co-applied TRITC-dextran (TD) during peptide transport; format: cell-based, human; details: INS chips with and without TAT
Protocol: Here, the cells were counterstained with Hoechst (H1399, Thermo Fischer, 10 μg ml^−1) and incubated for 1 h at 37°C, 5% CO2, washed with PBS and images were acquired using SD confocal microscopy with 488 nm laser and 520/28 BrightLine HC filters for detecting FITC-labelled TAT and the 405 nm laser and 442/42 BrightLine HC filter for acquiring Hoechst. The cell tubules exposed to TAT/INS (24 µM/50 μM, IS1-AF647-1, Nanocs) were stained with above mentioned cellular dyes and CellMask-green (C37608, Thermo Fisher, 1:500) for 30 min on ice after 3 h of incubation. The transport of TAT was tracked over 2 h, acquiring time lapse images every 30 s using epi-fluorescence microscopy (see Imaging modalities). […] To simultaneously monitor the barrier integrity TD (0.5 mg ml^−1) was co-applied to the chips and measured in parallel to TAT. For the quantification of both TAT, INS and TD transport across the cell barrier, calibration curves were established. […]
Next we used the platform to study the barrier transport kinetics of TAT. We performed whole-chip real-time live cell imaging, to quantify the concentration of TAT transported across the coculture cell layer and reaching the receiving channel (Figure 6B). […] Both the FITC and TRITC channels were recorded for each tubular system every 30 s for a total of 2.5 h. […]

[3] = tested on: Caco-2:HT29-MTX E12 coculture tubules; assay: Image-based real-time quantification of TAT and TAT/INS transport across coculture tubules; details: 50 µM INS, whether or not TAT (24 µM) was present, over 3 h, n = 3
Protocol: We performed whole-chip real-time live cell imaging, to quantify the concentration of TAT transported across the coculture cell layer and reaching the receiving channel (Figure 6B). […] Both the FITC and TRITC channels were recorded for each tubular system every 30 s for a total of 2.5 h. […] A calibration experiment where known concentrations of TAT or TD were added to a chip without cells allowed us to convert the measured intensities to actual concentration in μM and mg mL^−1 respectively (Supplementary Figure S5). […]

Which results are given for “INS: AlexaFluor647-labeled insulin (IS1-AF647-1, Nanocs)”?
Intracellular localization of INS ([1]; INS and INS/TAT, 3 h, 100x, indicating endosomal uptake): localized inside the cytosol in punctual patterns; Cellular internalization of INS ([1]; after 3 h, live cell imaging, with and without TAT): internalized into the enterocyte cell layer even without TAT; Barrier integrity [2]: not compromised significantly; INS transport across the cell barrier [3]: no INS transport across the cell barrier
